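The compound was tested at five concentrations on cells cultured in 96-well plates, with a 48-hour exposure period. The concentration for full growth arrest is given as TGI.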
Tests used:
Assay in all cases: inhibition of tumour cell growth, NCI panel, 48 h
SW-620 colon = system: SW-620 colon
DMS 273 small cell lung = system: DMS 273 small cell lung
UACC-62 melanoma = system: UACC-62 melanoma
RPMI-8226 leukemia = system: RPMI-8226 leukemia
ACHN renal = system: ACHN renal
U251 CNS = system: U251 CNS
NCI-H460 lung = system: NCI-H460 lung
MALME-3M melanoma = system: MALME-3M melanoma
KM12 colon = system: KM12 colon
OVCAR-4 ovarian = system: OVCAR-4 ovarian
DMS 114 small cell lung = system: DMS 114 small cell lung
RXF-631 renal = system: RXF-631 renal
CAKI-1 renal = system: CAKI-1 renal
SNB-78 CNS = system: SNB-78 CNS
UO-31 renal = system: UO-31 renal
HCT-15 colon = system: HCT-15 colon
HOP-92 NSCLC = system: HOP-92 NSCLC
SK-MEL-2 melanoma = system: SK-MEL-2 melanoma
NCI-H23 lung = system: NCI-H23 lung
786-0 renal = system: 786-0 renal
HL-60(TB) leukemia = system: HL-60(TB) leukemia
HOP-18 NSCLC = system: HOP-18 NSCLC
M19-MEL melanoma = system: M19-MEL melanoma
SK-MEL-5 melanoma = system: SK-MEL-5 melanoma
NCI-H226 lung = system: NCI-H226 lung
OVCAR-5 ovarian = system: OVCAR-5 ovarian
EKVX NSCLC = system: EKVX NSCLC
HCT-116 colon = system: HCT-116 colon
KM20L2 colon = system: KM20L2 colon
HT29 colon = system: HT29 colon
IGROV1 ovarian = system: IGROV1 ovarian
COLO 205 colon = system: COLO 205 colon
XF 498 CNS = system: XF 498 CNS
A498 renal = system: A498 renal
NCI-H522 lung = system: NCI-H522 lung
HCC-2998 colon = system: HCC-2998 colon
SF-539 CNS = system: SF-539 CNS
UACC-257 melanoma = system: UACC-257 melanoma
DLD-1 colon = system: DLD-1 colon
HOP-62 NSCLC = system: HOP-62 NSCLC
SK-MEL-28 melanoma = system: SK-MEL-28 melanoma
SK-OV-3 ovarian = system: SK-OV-3 ovarian
TK-10 renal = system: TK-10 renal
K-562 leukemia = system: K-562 leukemia
M14 melanoma = system: M14 melanoma
CCRF-CEM leukemia = system: CCRF-CEM leukemia
OVCAR-8 ovarian = system: OVCAR-8 ovarian
SNB-19 CNS = system: SNB-19 CNS
OVCAR-3 ovarian = system: OVCAR-3 ovarian
SNB-75 CNS = system: SNB-75 CNS
SN12C renal = system: SN12C renal
A549 NSCLC = system: A549 NSCLC
SF-268 CNS = system: SF-268 CNS
MOLT-4 leukemia = system: MOLT-4 leukemia
SF-295 CNS = system: SF-295 CNS
LXFL 529 NSCLC = system: LXFL 529 NSCLC
RXF 393 renal = system: RXF 393 renal
SR leukemia = system: SR leukemia
LOX IMVI melanoma = system: LOX IMVI melanoma

With `CCCNC(=O)c1cc2ccccc2cc1C(=O)OC` the TGI (SW-620 colon) was > 100 µM, the TGI (DMS 273 small cell lung) was > 100 µM and the TGI (UACC-62 melanoma) was > 100 µM. For the same molecule, the TGI (RPMI-8226 leukemia) was > 100 µM, the TGI (ACHN renal) was > 100 µM and the TGI (U251 CNS) was > 100 µM. For the same molecule, the TGI (NCI-H460 lung) was > 100 µM, the TGI (MALME-3M melanoma) was > 100 µM and the TGI (KM12 colon) was > 100 µM. For the same molecule, the TGI (OVCAR-4 ovarian) was > 100 µM, the TGI (DMS 114 small cell lung) was > 100 µM and the TGI (RXF-631 renal) was > 100 µM. For the same molecule, the TGI (CAKI-1 renal) was > 100 µM, the TGI (SNB-78 CNS) was > 100 µM and the TGI (UO-31 renal) was > 100 µM. For the same molecule, the TGI (HCT-15 colon) was > 100 µM, the TGI (HOP-92 NSCLC) was > 100 µM and the TGI (SK-MEL-2 melanoma) was > 100 µM. The TGI (NCI-H23 lung) was > 100 µM, the TGI (786-0 renal) was > 100 µM and the TGI (HL-60(TB) leukemia) was > 100 µM. The TGI (HOP-18 NSCLC) was > 100 µM, the TGI (M19-MEL melanoma) was > 100 µM and the TGI (SK-MEL-5 melanoma) was > 100 µM. The TGI (NCI-H226 lung) was > 100 µM, the TGI (OVCAR-5 ovarian) was > 100 µM and the TGI (EKVX NSCLC) was > 100 µM. The TGI (HCT-116 colon) was > 100 µM, the TGI (KM20L2 colon) was > 100 µM and the TGI (HT29 colon) was > 100 µM. For the same molecule, the TGI (IGROV1 ovarian) was > 100 µM, the TGI (COLO 205 colon) was > 100 µM and the TGI (XF 498 CNS) was > 100 µM. The TGI (A498 renal) was > 100 µM, the TGI (NCI-H522 lung) was > 100 µM and the TGI (HCC-2998 colon) was > 100 µM. The TGI (SF-539 CNS) was > 100 µM, the TGI (UACC-257 melanoma) was > 100 µM and the TGI (DLD-1 colon) was > 100 µM. For the same molecule, the TGI (HOP-62 NSCLC) was > 100 µM, the TGI (SK-MEL-28 melanoma) was > 100 µM and the TGI (SK-OV-3 ovarian) was > 100 µM. The TGI (TK-10 renal) was > 100 µM, the TGI (K-562 leukemia) was > 100 µM and the TGI (M14 melanoma) was > 100 µM. The TGI (CCRF-CEM leukemia) was > 100 µM, the TGI (OVCAR-8 ovarian) was > 100 µM and the TGI (SNB-19 CNS) was > 100 µM. For the same molecule, the TGI (OVCAR-3 ovarian) was > 100 µM, the TGI (SNB-75 CNS) was 75.8 µM and the TGI (SN12C renal) was > 100 µM. For the same molecule, the TGI (A549 NSCLC) was > 100 µM, the TGI (SF-268 CNS) was > 100 µM and the TGI (MOLT-4 leukemia) was > 100 µM. For the same molecule, the TGI (SF-295 CNS) was > 100 µM and the TGI (LXFL 529 NSCLC) was > 100 µM.
For `Cn1c(=O)c(C(c2ccccc2)c2c(O)c3ccccc3n(C)c2=O)c(O)c2ccccc21`, the TGI (SW-620 colon) was > 100 µM, the TGI (DMS 273 small cell lung) was > 100 µM and the TGI (UACC-62 melanoma) was > 100 µM. The TGI (RPMI-8226 leukemia) was > 100 µM, the TGI (ACHN renal) was > 100 µM and the TGI (U251 CNS) was > 100 µM. For the same molecule, the TGI (NCI-H460 lung) was > 100 µM, the TGI (MALME-3M melanoma) was > 100 µM and the TGI (KM12 colon) was > 100 µM. For the same molecule, the TGI (OVCAR-4 ovarian) was > 100 µM, the TGI (DMS 114 small cell lung) was > 100 µM and the TGI (RXF-631 renal) was > 100 µM. For the same molecule, the TGI (CAKI-1 renal) was > 100 µM, the TGI (SNB-78 CNS) was > 100 µM and the TGI (UO-31 renal) was > 100 µM. The TGI (HOP-92 NSCLC) was > 100 µM, the TGI (SK-MEL-2 melanoma) was > 100 µM and the TGI (NCI-H23 lung) was > 100 µM. The TGI (786-0 renal) was > 100 µM, the TGI (HL-60(TB) leukemia) was > 100 µM and the TGI (HOP-18 NSCLC) was > 100 µM. The TGI (M19-MEL melanoma) was > 100 µM, the TGI (SK-MEL-5 melanoma) was > 100 µM and the TGI (NCI-H226 lung) was 65.9 µM. The TGI (OVCAR-5 ovarian) was 93.1 µM, the TGI (RXF 393 renal) was > 100 µM and the TGI (EKVX NSCLC) was > 100 µM. The TGI (HCT-116 colon) was > 100 µM, the TGI (KM20L2 colon) was > 100 µM and the TGI (HT29 colon) was > 100 µM. For the same molecule, the TGI (IGROV1 ovarian) was > 100 µM, the TGI (COLO 205 colon) was > 100 µM and the TGI (XF 498 CNS) was > 100 µM. The TGI (NCI-H522 lung) was > 100 µM, the TGI (HCC-2998 colon) was > 100 µM and the TGI (SR leukemia) was > 100 µM. The TGI (SF-539 CNS) was > 100 µM, the TGI (UACC-257 melanoma) was > 100 µM and the TGI (DLD-1 colon) was > 100 µM. For the same molecule, the TGI (SK-MEL-28 melanoma) was > 100 µM, the TGI (SK-OV-3 ovarian) was > 100 µM and the TGI (TK-10 renal) was > 100 µM. The TGI (K-562 leukemia) was > 100 µM, the TGI (M14 melanoma) was > 100 µM and the TGI (OVCAR-8 ovarian) was > 100 µM. For the same molecule, the TGI (LOX IMVI melanoma) was > 100 µM, the TGI (SNB-19 CNS) was > 100 µM and the TGI (OVCAR-3 ovarian) was > 100 µM. The TGI (SNB-75 CNS) was > 100 µM, the TGI (SN12C renal) was > 100 µM and the TGI (A549 NSCLC) was > 100 µM. For the same molecule, the TGI (SF-268 CNS) was > 100 µM, the TGI (MOLT-4 leukemia) was > 100 µM and the TGI (SF-295 CNS) was > 100 µM. The TGI (LXFL 529 NSCLC) was > 100 µM.
